{"source": "patent US6589549B2", "about": "“Bioactive agent delivering system comprised of microparticles within a biodegradable to improve release profiles” (Macromed, Incorporated, priority 2000, dated 2003)", "settings": "in the presence of the block copolymer", "data": [{"smiles": "CC(=O)O[C@H]1C(=O)[C@@]2(C)[C@H]([C@H](OC(=O)c3ccccc3)[C@]3(O)C[C@H](OC(=O)[C@H](O)[C@@H](NC(=O)c4ccccc4)c4ccccc4)C(C)=C1C3(C)C)[C@]1(OC(C)=O)CO[C@@H]1C[C@@H]2O", "note": "[paclitaxel]", "values": [{"measurement": "chemical stability in the aqueous polymer composition relative to aqueous solutions with organic co-solvents", "result": "substantially stabilized"}]}]}
